Patent US20240108610A1, “RECTAL ADMINISTRATION OF ROFLUMILAST FOR THE TREATMENT OF CROHN'S DISEASE” (King Abdulaziz University, priority 2022, published 2024)
Marks after values point to notes of the source that are not given here.

Legend:
TNF-α = TNF-α immunostaining of colonic sections; type: in vivo, rat
Method: Chronic colitis was induced by weekly rectal injections of increasing doses of TNBS over 6 weeks (15, 30, 45, 60, 60, and 60 mg from day 0 to day 35), as previously described (4,12). Briefly, after food deprivation for 24 h, rats were anesthetized with an intraperitoneal injection of 1% isoflurane. TNBS was dissolved in ethanol (50%) and instilled into the colon using a cannula (0.25 mL), and then the rats were held upside down for 3 min to prevent escape of the intracolonic TNBS. Roflumilast was dissolved in dimethyl sulfoxide and diluted in 0.5% carboxymethyl cellulose sodium to a final concentration of 5.0 mg·kg^−1·day^−1 as previously described (13). Five groups of rats (n=8) were established: normal control (NC group), TNBS-treated (TNBS group, positive control), and three TNBS-treated groups that received oral sulfasalazine (SS group, 500 mg/kg) (14), oral roflumilast (by gastric gavage, OR group, 5 mg/kg), or rectal roflumilast (RR group, 5 mg/kg). Treatments were administered once daily in a volume of 200 μL for 15 days starting 48 h after the induction of colitis (from day 37) (15), and the control rats received equal amounts of vehicle. At the end of the treatment period, the rats were evaluated with the colitis activity score. To detect the effects of the treatments on systemic inflammatory processes, blood was collected for measurements of the proinflammatory mediators TNF-α, IL-2, and IL-6. At the end of the 15-day treatment period, the rats were sacrificed by cervical dislocation, and the colon was isolated, cleaned of feces, and measured for weight and length. Colonic myeloperoxidase (MPO) activity and glutathione (GSH) and malonaldehyde (MDA) levels were measured. The colon was examined macroscopically for gross changes and microscopically in sections stained with hematoxylin and eosin (H&E), Masson trichrome, and Periodic Acid Schiff (PAS) stains as well as KI-67 and TNF-α immunostaining. […] This primary antibody was detected using avidin-biotin peroxidase detection solution (Dako), and the signal was visualized using diaminobenzidine. […]

MPO = test: Colonic MPO in colonic tissue homogenates, TNBS-induced colitis; type: in vivo, rat; settings: means±SE, n = 8
Method: Chronic colitis was induced by weekly rectal injections of increasing doses of TNBS over 6 weeks (15, 30, 45, 60, 60, and 60 mg from day 0 to day 35), as previously described (4,12). Briefly, after food deprivation for 24 h, rats were anesthetized with an intraperitoneal injection of 1% isoflurane. TNBS was dissolved in ethanol (50%) and instilled into the colon using a cannula (0.25 mL), and then the rats were held upside down for 3 min to prevent escape of the intracolonic TNBS. Roflumilast was dissolved in dimethyl sulfoxide and diluted in 0.5% carboxymethyl cellulose sodium to a final concentration of 5.0 mg·kg^−1·day^−1 as previously described (13). Five groups of rats (n=8) were established: normal control (NC group), TNBS-treated (TNBS group, positive control), and three TNBS-treated groups that received oral sulfasalazine (SS group, 500 mg/kg) (14), oral roflumilast (by gastric gavage, OR group, 5 mg/kg), or rectal roflumilast (RR group, 5 mg/kg). Treatments were administered once daily in a volume of 200 μL for 15 days starting 48 h after the induction of colitis (from day 37) (15), and the control rats received equal amounts of vehicle. At the end of the treatment period, the rats were evaluated with the colitis activity score. […] At the end of the 15-day treatment period, the rats were sacrificed by cervical dislocation, and the colon was isolated, cleaned of feces, and measured for weight and length. Colonic myeloperoxidase (MPO) activity and glutathione (GSH) and malonaldehyde (MDA) levels were measured. […] The levels of MPO (a marker of neutrophil activity), GSH (one of the most important cellular antioxidants), and MDA (an indicator of lipid peroxidation) in colonic tissue homogenates were measured using the commercially available kits as previously described: MPO ELISA kit (Innovative Research) (18), GSH colorimetric assay kit (Innovative Research) (19), and MDA ELISA kit (Neobio Lab Comp., USA) (20).

[1] = oral, once daily for 15 days, sulfasalazine 500 mg/kg, roflumilast 5 mg/kg
[2] = rectal, 5 mg/kg once daily for 15 days
[3] = oral, once daily for 15 days, SS 500 mg/kg, OR 5 mg/kg

Row | SMILES | TNF-α immunoexpression in the mucosa (TNF-α; [1]) | TNF-α immunoexpression in the mucosa (TNF-α; [2]) | colonic MPO activity (MPO; [3]) | colonic MPO activity (MPO; [2])
1 | O=C(Nc1c(Cl)cncc1Cl)c1ccc(OC(F)F)c(OCC2CC2)c1 [roflumilast] | moderately positive reactions | strong positive reactions | 23.89 ± 0.92^a, b, c μ/g | 28.17 ± 1.00^a μ/g
2 | O=C(O)c1cc(/N=N/c2ccc(S(=O)(=O)Nc3ccccn3)cc2)ccc1O [sulfasalazine] | very faint positive reactions | – | 18.38 ± 0.87^a μ/g | –
